Laboratory results reported in US20250282820A1, “PEPTIDE COMPLEX HAVING TRKB BINDING ACTIVITY” (PEPTIDREAM INC, priority 2022, published 2025).
*1 amine or outer side, *2 acyl side, *3 side chain or, on linkers, in order; H or OH if unused. Where a SMILES comes first, the peptide text is derived from it. Bridges are numbered along the chain shown (N, C = ends). Roman numbers before positions name the chains, in order. [ ]: non-standard residue; d: D form. PEG8 = NCCOCCOCCOCCOCCOCCOCCOCCOCCC(=O)O; 3Pal = N[C@@H](Cc1cccnc1)C(=O)O; X2 = O=C(CCOCCC(=O)[*:2])[*:1]

Columns and labels:
Type in all cases: cell-based
[1] = biological target: T1, TrkB (CellSensor TrkB-NFAT-bla CHO-K1 Cell) (Homo sapiens, UniProt Q16620); experiment: NFAT transcriptional reporter assay for TrkB agonist activity; conditions: class = peptide concentration giving 50% or more activity; BDNF maximum signal = 100%, no stimulation = 0%; 5 hours culture
T1 construct: host or cells: CHO-K1 (CellSensor TrkB-NFAT-bla CHO-K1)
T1 sequence (Q16620 32-822): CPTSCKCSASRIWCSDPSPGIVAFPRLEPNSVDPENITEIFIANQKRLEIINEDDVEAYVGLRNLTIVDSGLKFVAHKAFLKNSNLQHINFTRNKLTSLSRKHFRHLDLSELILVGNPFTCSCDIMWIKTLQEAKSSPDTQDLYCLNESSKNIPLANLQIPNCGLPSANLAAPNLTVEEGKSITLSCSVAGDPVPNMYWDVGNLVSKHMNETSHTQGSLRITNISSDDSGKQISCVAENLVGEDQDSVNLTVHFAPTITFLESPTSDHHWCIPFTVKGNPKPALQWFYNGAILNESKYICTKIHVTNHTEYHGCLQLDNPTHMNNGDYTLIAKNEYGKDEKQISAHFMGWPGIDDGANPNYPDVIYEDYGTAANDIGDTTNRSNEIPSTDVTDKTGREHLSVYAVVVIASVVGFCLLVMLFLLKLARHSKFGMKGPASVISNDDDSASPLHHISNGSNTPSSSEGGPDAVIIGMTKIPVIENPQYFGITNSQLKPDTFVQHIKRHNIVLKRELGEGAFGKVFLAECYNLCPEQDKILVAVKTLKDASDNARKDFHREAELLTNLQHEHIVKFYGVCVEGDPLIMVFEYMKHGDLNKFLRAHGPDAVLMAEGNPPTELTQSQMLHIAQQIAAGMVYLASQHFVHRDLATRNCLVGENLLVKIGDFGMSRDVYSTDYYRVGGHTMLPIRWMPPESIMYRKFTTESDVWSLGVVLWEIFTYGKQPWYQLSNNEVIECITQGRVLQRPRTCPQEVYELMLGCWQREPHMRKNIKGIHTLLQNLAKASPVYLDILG
Experimental: To evaluate the TrkB activation potency of the TrkB agonist peptide of the present invention, transcriptional activity was examined using transcriptional reporters. The CellSensor (registered trademark) TrkB-NFAT-bla CHO-K1 Cell (Invitrogen) used in the AlphaLISA assay was cultured in the medium above. After the cells were detached using Accutase (Innovative Cell Technologies), the cells were suspended in an assay medium, wherein Blasticidin and Zeocin were removed, then seeded into a 96-well plate for adherent cultures at 12,500 cells per well and cultured overnight. Then, BDNF or a peptide was added thereto, and the cells were further cultured in a CO2 incubator for 5 hours. After the 96-well plate was removed from the incubator and brought to room temperature, a detection reagent (LiveBLAzer (registered trademark)-FRET B/G (CCF4-AM) Substrate Mixture) was added while protected from the light, and the 96-well plate was incubated while protected from the light in a moisture box with a lid for 2 hours. For signal detection, a EnVision 2104 Multilabel Plate Reader (PerkinElmer) was used, and the ratio of fluorescence emission value (460 nm/535 nm) was calculated. The obtained numerical values were analyzed with GraphPad Prism, and the activity (%) was calculated with the maximum value of the signals induced by BDNF as 100% and a signal with no stimulation as 0%. The peptide with 50% or more activity when 1 nM of the peptide was added was evaluated as A, the peptide with 50% or more activity when 10 nM of the peptide was added was evaluated as B, and the peptide with 50% or more activity when 100 nM of the peptide was added was evaluated as C. Those that were not evaluated were listed as not tested.
The BDNF was evaluated at 7 points (0.0024 nM to 10 nM) from 10 nM using 4-fold dilutions.
For dimer structures Nos. 1 to 3, the peptide was evaluated at 1 nM, 10 nM, and 100 nM, and, for other dimer structure numbers, the peptide was evaluated at 0.1 nM, 1 nM, and 10 nM. When creating the concentration dependence curve, the BDNF and the peptides were evaluated at […] (0.006 nM to 100 nM) […] using 4-fold dilutions.

[2] = biological target: TrkB (Homo sapiens, UniProt Q16620); experiment: PathHunter eXpress TrkB Functional Assay (phosphorylation of TrkB); conditions: maximum signal induced by BDNF = 100%; stimulation for 3 hours
Chain of TrkB (Q16620 32-822): as above
Procedure, shortened: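 PathHunter TrkB cells, cultured 48 h, were stimulated 3 h with peptide or BDNF, then detection reagent added for 60 min at room temperature; luminescence read. Activity (%) scaled from unstimulated (0%) to maximal BDNF signal (100%); peptides tested over 0.006104-100 nM, 0.032-100 nM or 0.01-10 nM ranges.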

[3] = biological target: T1, TrkB (CellSensor TrkB-NFAT-bla CHO-K1 Cell); experiment: pERK1/2 AlphaLISA assay (phosphorylation of ERK) for TrkB agonist activity; conditions: class = peptide concentration giving 50% or more activity; BDNF maximum signal = 100%, no stimulation = 0%; 15 minutes of stimulation
Experimental: To evaluate the TrkB activation potency of the TrkB agonist peptide of the present invention, the phosphorylation of ERK was examined. CellSensor (registered trademark) TrkB-NFAT-bla CHO-K1 Cell (Invitrogen) was cultured in DMEM, high glucose, GlutaMAX (registered trademark) Supplement, and pyruvate (Thermo), comprising 10% FBS (Thermo) and 1× Non-essential amino acids (Thermo), 25 mM HEPES (Thermo), 50 ug/mL Gentamicin, 5 ug/mL Blasticidin (Thermo), and 200 ug/mL Zeocin (Thermo). After the cells were detached using Accutase (Innovative Cell Technologies), they were seeded into a 96-well plate for adherent cultures at 12,500 cells per well and cultured overnight. The next day, for starvation, the culture solution above was replaced with a nutrient starvation medium comprising 0.1% BSA (Sigma), wherein FBS, Blasticidin, and Zeocin were removed from the culture medium, and culturing was performed for 4 hours. Thereafter, Recombinant Human BDNF Protein (R&D Systems) or a peptide was added, and after 15 minutes of stimulation, cells were lysed in the Lysis Buffer provided with the AlphaLISA SureFire Ultra p-Erk1/2 (Thr202/Tyr204) assay kit (PerkinElmer). The assay was performed according to the kit protocol. The signals were detected using a SpectraMax Paradigm Multi-Mode Microplate Reader (Molecular Devices). The obtained signals were analyzed with GraphPad Prism, and the activity (%) was calculated with the maximum value of the signals induced by BDNF as 100% and a signal with no stimulation as 0%. The peptide with 50% or more activity when 1 nM of the peptide was added was evaluated as A, and the peptide with 50% or more activity when 10 nM of the peptide was added was evaluated as B.
The BDNF was evaluated at 8 points (0.0006 nM to 10 nM) from 10 nM using 4-fold dilutions.
For dimer structures Nos. 1 to 3, the peptide was evaluated at 1 nM, 10 nM, and 100 nM, and, for other dimer structure numbers, the peptide was evaluated at 0.1 nM, 1 nM, and 10 nM. When creating the concentration dependence curve, the BDNF and the peptides were evaluated at 8 points (0.006 nM to 100 nM) from 100 nM using 4-fold dilutions.

SMILES | NFAT Assay Results [1] | Emax [2] [%] | pERK (aLISA) Assay Results [3]
CC(C)[C@@H]1NC(=O)[C@H](Cc2cccnc2)NC(=O)[C@H](CCC(=O)O)NC(=O)[C@H](CO)NC(=O)[C@H](Cc2ccc(O)cc2)NC(=O)[C@H]([C@@H](C)O)NC(=O)[C@@H]2CCCN2C(=O)[C@H](Cc2c[nH]c3ccccc23)NC(=O)[C@H](Cc2cccnc2)NC(=O)[C@H](Cc2ccc(O)cc2)NC(=O)[C@@H]2CCCN2C(=O)[C@H](CCC(=O)O)NC(=O)[C@H](Cc2ccccc2)NC(=O)CSC[C@@H](C(=O)NCC(=O)NCCOCCOCCOCCOCCOCCOCCOCCOCCC(=O)NCCCC[C@H](NC(=O)CCOCCOCCOCCOCCOCCOCCOCCOCCNC(=O)CNC(=O)[C@@H]2CSCC(=O)N[C@@H](Cc3ccccc3)C(=O)N[C@@H](CCC(=O)O)C(=O)N3CCC[C@H]3C(=O)N[C@@H](Cc3ccc(O)cc3)C(=O)N[C@@H](Cc3cccnc3)C(=O)N[C@@H](Cc3c[nH]c4ccccc34)C(=O)N3CCC[C@H]3C(=O)N[C@@H]([C@@H](C)O)C(=O)N[C@@H](Cc3ccc(O)cc3)C(=O)N[C@@H](CO)C(=O)N[C@@H](CCC(=O)O)C(=O)N[C@@H](Cc3cccnc3)C(=O)N[C@@H](C(C)C)C(=O)N[C@@H](CO)C(=O)N2)C(N)=O)NC(=O)[C@H](CO)NC1=O [compound 18] (I: {CH2CO}-FEPY[3Pal]WPTYSE[3Pal]VSCG[PEG8]K-NH2 / II: {CH2CO}-FEPY[3Pal]WPTYSE[3Pal]VSCG[PEG8]; amide I:18-II:C (inferred); thioether I:N-I:15, II:N-II:15 (inferred)) | A (The peptide with 50% or more activity when 1 nM of the peptide was added was evaluated as A) | 93 | A (The peptide with 50% or more activity when 1 nM of the peptide was added was evaluated as A)
CC(C)[C@@H]1NC(=O)[C@H](Cc2cccnc2)NC(=O)[C@H](CCC(=O)O)NC(=O)[C@H](CO)NC(=O)[C@H](Cc2ccc(O)cc2)NC(=O)[C@H]([C@@H](C)O)NC(=O)[C@@H]2CCCN2C(=O)[C@H](Cc2c[nH]c3ccccc23)NC(=O)[C@H](Cc2cccnc2)NC(=O)[C@H](Cc2ccc(O)cc2)NC(=O)[C@@H]2CCCN2C(=O)[C@H](CO)NC(=O)[C@H](Cc2ccccc2)NC(=O)CSC[C@@H](C(=O)NCC(=O)NCCOCCOCCOCCOCCOCCOCCOCCOCCC(=O)N[C@@H](CCCCNC(=O)CCOCCC(=O)NCCCC[C@H](NC(=O)CCOCCOCCOCCOCCOCCOCCOCCOCCNC(=O)CNC(=O)[C@@H]2CSCC(=O)N[C@@H](Cc3ccccc3)C(=O)N[C@@H](CO)C(=O)N3CCC[C@H]3C(=O)N[C@@H](Cc3ccc(O)cc3)C(=O)N[C@@H](Cc3cccnc3)C(=O)N[C@@H](Cc3c[nH]c4ccccc34)C(=O)N3CCC[C@H]3C(=O)N[C@@H]([C@@H](C)O)C(=O)N[C@@H](Cc3ccc(O)cc3)C(=O)N[C@@H](CO)C(=O)N[C@@H](CCC(=O)O)C(=O)N[C@@H](Cc3cccnc3)C(=O)N[C@@H](C(C)C)C(=O)N[C@@H](CCC(=O)O)C(=O)N2)C(N)=O)C(N)=O)NC(=O)[C@H](CCC(=O)O)NC1=O [compound 33] (I: {CH2CO}-FSPY[3Pal]WPTYSE[3Pal]VECG[PEG8]K-NH2 / II: {CH2CO}-FSPY[3Pal]WPTYSE[3Pal]VECG[PEG8]K-NH2; linker I:18-II:18 via X2; thioether I:N-I:15, II:N-II:15) | A (The peptide with 50% or more activity when 1 nM of the peptide was added was evaluated as A) | 96 | A (The peptide with 50% or more activity when 1 nM of the peptide was added was evaluated as A)
